The source of these data is publication PMC11048155, “Antiviral Drug Candidate Repositioning for Streptococcus suis Infection in Non-Tumorigenic Cell Models” (Biomedicines, 2024).

In data set [1] the test system is Pseudomonas (P.) aeruginosa (ATCC 27853). Kind of data set: MIC measurement (broth microdilution). It is filed as cell-based. The note with it: source ATCC, 18–24 h at 37 °C. (In general: Broth dilution looks for growth in wells or tubes with falling amounts of substance.)
Data set [2] concerns Pasteurella (P.) multocida (clinical isolate). Description: MIC measurement (broth microdilution). The conditions noted are these: source 380/22, 18–24 h at 37 °C. It is filed as cell-based.
In data set [3] the test system is Burkholderia (B.) cepacia (clinical isolate). Kind of data set: MIC measurement (broth microdilution). The note with it: B. cepacia, source 20-10299; 18–24 h at 37 °C; read-out: MIC. It counts as cell-based.
Data set [4] relates to Enterococcus (E.) faecalis (clinical isolate). Description: MIC measurement (broth microdilution). It is filed as cell-based. The conditions noted are these: Enterococcus; E. fecalis, source 442; 18–24 h at 37 °C; read-out: MIC.
In a further data set the target is T1, CYP2C19 (Homo sapiens, UniProt P33261).
T1 construct: Human hepatic microsomal supernatants were prepared; tissue Gibco; host or cells: human liver microsomes
T1 sequence (P33261 whole entry): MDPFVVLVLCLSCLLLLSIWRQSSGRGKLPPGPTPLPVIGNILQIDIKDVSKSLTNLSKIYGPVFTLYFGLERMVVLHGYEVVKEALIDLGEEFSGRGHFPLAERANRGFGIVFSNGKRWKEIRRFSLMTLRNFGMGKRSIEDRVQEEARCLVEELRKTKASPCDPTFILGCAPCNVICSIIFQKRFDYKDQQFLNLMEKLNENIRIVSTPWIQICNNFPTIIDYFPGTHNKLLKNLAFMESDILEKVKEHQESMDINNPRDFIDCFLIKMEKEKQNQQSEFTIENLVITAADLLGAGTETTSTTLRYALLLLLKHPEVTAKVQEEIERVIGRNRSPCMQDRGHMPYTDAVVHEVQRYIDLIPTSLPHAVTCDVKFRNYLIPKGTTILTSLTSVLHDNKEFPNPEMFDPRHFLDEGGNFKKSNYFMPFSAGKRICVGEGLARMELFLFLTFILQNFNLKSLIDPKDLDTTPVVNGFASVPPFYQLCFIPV
Description: CYP enzyme fluorometric activity measurement, human hepatic microsomes. It counts as in vitro ADME. The conditions noted are these: inhibitor 50 µM, 15 min, p > 0.05.

The test system of data set [5] is IPEC-J2 cells. Description: Cell viability, Neutral red assay. It is filed as cell-based, porcine. The conditions noted are these: IPEC-J2, S. suis 10^4 CFU/mL in combination with inhibitor 50 µM, 24 h. From the text:
The IPEC-J2 cell line is unique as it is non-transformed and non-tumorigenic. IPEC-J2 cells are derived from intestinal enterocytes extracted from the jejunum of neonatal unsuckled piglets. IPEC-J2 cells were gifted by Dr. Jody Gookin (Department of Clinical Sciences, College of Veterinary Medicine, North Carolina State University, Raleigh, NC, USA). […] The cells had undergone passage around 50 times. […] This experiment included plain DMEM/F12 medium as a control. At the end of the final treatments (24 h), the ratio of viable cells was measured by absorbance at 540 nm wavelength with a SpectraMax iD3 microplate reader.

The test system of data set [6] is IPEC-J2 cells. Kind of data set: IL-6 production, porcine IL-6 ELISA. It is filed as cell-based. The conditions noted are these: IPEC-J2, S. suis 10^4 CFU/mL in combination with inhibitor, 24 h. As to the method:
(§1) After 24 h incubation time, the cell-free supernatants from […], MI-471, and MI-476 exposure were sampled from IPEC-J2 cells and from porcine hepatocytes. The changes in cytokine levels were detected with porcine IL-6 ELISA kits. The manufacturer’s instructions were followed to treat the supernatants and measured by a SpectraMax iD3 microplate reader at 450 nm.
A general note: An ELISA detects its analyte on a solid surface through an enzyme-linked reagent.

The next data set has as its system porcine hepatocytes. Kind of data set: IL-6 production, porcine IL-6 ELISA. It counts as cell-based. The note with it: S. suis 10^4 CFU/mL in combination with inhibitor, 24 h. As to the method: as §1
Data set [7] has as its system primary porcine hepatocytes. Description: Cell viability, Neutral red assay. It counts as cell-based. The note with it: S. suis 10^4 CFU/mL in combination with inhibitor 50 µM, 24 h. As to the method: Porcine cryopreserved primary hepatocytes were obtained from Primacyt Cell Culture Company (Schwerin, Germany). Lonza Group Ltd. (Biocenter Ltd., Szeged, Hungary) supplied the thawing, plating, and maintenance media. The cytotoxic effects of inhibitors MI-432, MI-471, and MI-476 were tested on the viability of primary hepatocytes using the NR method. The hepatocytes were cultivated on a 96-well plate for 24 h, followed by incubation with the inhibitors at 0, 50, and 100 µM for an additional 24 h. Only cell maintenance medium was used to incubate the control cells. The plate underwent incubation together with NR dye for 2 h. Hepatocyte viability was recorded at 540 nm with a SpectraMax iD3 microplate reader.

In brackets after ≈: the same amount, converted by molar mass. Entries after “also recorded” stand apart in the source; their conditions may differ.

Description for CYP2C19: The Biovision CYP assays (BioVision, Inc., Kampenhout, Belgium) employ non-fluorescent CYP2D6, 2C9, 2C19, 1A2, or 3A4 substrates able to undergo transformation into highly fluorescent detectable metabolites. […] Human hepatic microsomal supernatants were prepared (Gibco, Biocentre, Szeged, Hungary protein concentration: 20 mg/mL) separately by mixing 30 µL with 2425 µL assay buffer and with 50 µL nicotinamide adenine dinucleotide phosphate (NADPH) generating system (100×). […] Control measurements were performed in the absence of the inhibitors.
In background controls, only assay buffer excluding microsomes and test compounds was used in a volume of 70 µL. Subsequently, after incubation at 37 °C for 15 min, 30 µL of the suitable CYP substrate/NADP+ mixture was incorporated into each well, resulting in a final reaction volume of 100 µL/well. The obtained microsomal protein content was assessed using the bicinchoninic acid protein assay kit (Pierce BCA kit, Thermo Fisher Scientific, Waltham, MA, USA). In each assay, the microsomal protein concentration was calibrated to 100 µg/well. The fluorescence intensities were measured with a fluorometer (Victor X2 2030, Perkin Elmer, Waltham, MA, USA) using λex/em = 406/468 nm for CYP1A2 and for CYP2C19, λex/em = 415/502 nm for CYP2C9, λex/em = 390/468 nm for CYP2D6, and λex/em = 535/587 nm for CYP3A4 assays.

What is called MIC is the least concentration at which growth counts as inhibited. With `N=C(N)c1cccc(C[C@H](NS(=O)(=O)c2cccc(-c3ccc(Cl)cc3Cl)c2)C(=O)N2CCC(N)CC2)c1` [MI-471], the MIC was more than 800 µM in data set [1], 50 µM (≈ 28.7 µg/mL) in data set [2], 400 µM (≈ 230 µg/mL) in data set [3] and more than 800 µM in [4]. In addition, the CYP2C19 activity result on CYP2C19 was “No significant inhibitory effects”. In addition, the cell viability entry with IPEC-J2 cells [5] is on record as “did not show any negative effect on cell viability; also recorded: effectively suppressed”. The IL-6 levels result with IPEC-J2 cells [6] and in the data set on porcine hepatocytes was “significant anti-inflammatory effects” each time.
Take `N=C(N)c1cccc(C[C@H](NS(=O)(=O)c2cccc(-c3ccc(Cl)cc3Cl)c2)C(=O)N2CCC(CN)CC2)c1` [MI-476]: the MIC in data set [1] is more than 800 µM; in data set [2], 50 µM (≈ 29.4 µg/mL); in data set [3] it was 400 µM (≈ 235 µg/mL); in data set [4], more than 800 µM. Further, at CYP2C19, the CYP2C19 activity result is given as “No significant inhibitory effects”. Besides, the values for the cell viability result (in the data set on IPEC-J2 cells [5]; in [7]) were “did not show any negative effect on cell viability; also recorded: effectively suppressed” and “did not deteriorate cell viability; also recorded: effectively suppressed”, respectively. Besides, the IL-6 levels result with IPEC-J2 cells [6] and in the data set with porcine hepatocytes was “significant anti-inflammatory effects” throughout.
